What was measured:
GC-B [1] = target: T1, GC-B (Rattus norvegicus, UniProt P16067); assay: GC-B protein expression by Western blot in GH3 cells; type: cell-based; settings: 100 nM CNP, up to 24 h; n = 3; Fig. 4b
T1 construct: rapid homologous desensitization of endogenous GC-B receptors in GH3 cells; endogenous in cells; host or cells: GH3 rat somatolactotrope cells
T1 sequence (P16067 17-1047): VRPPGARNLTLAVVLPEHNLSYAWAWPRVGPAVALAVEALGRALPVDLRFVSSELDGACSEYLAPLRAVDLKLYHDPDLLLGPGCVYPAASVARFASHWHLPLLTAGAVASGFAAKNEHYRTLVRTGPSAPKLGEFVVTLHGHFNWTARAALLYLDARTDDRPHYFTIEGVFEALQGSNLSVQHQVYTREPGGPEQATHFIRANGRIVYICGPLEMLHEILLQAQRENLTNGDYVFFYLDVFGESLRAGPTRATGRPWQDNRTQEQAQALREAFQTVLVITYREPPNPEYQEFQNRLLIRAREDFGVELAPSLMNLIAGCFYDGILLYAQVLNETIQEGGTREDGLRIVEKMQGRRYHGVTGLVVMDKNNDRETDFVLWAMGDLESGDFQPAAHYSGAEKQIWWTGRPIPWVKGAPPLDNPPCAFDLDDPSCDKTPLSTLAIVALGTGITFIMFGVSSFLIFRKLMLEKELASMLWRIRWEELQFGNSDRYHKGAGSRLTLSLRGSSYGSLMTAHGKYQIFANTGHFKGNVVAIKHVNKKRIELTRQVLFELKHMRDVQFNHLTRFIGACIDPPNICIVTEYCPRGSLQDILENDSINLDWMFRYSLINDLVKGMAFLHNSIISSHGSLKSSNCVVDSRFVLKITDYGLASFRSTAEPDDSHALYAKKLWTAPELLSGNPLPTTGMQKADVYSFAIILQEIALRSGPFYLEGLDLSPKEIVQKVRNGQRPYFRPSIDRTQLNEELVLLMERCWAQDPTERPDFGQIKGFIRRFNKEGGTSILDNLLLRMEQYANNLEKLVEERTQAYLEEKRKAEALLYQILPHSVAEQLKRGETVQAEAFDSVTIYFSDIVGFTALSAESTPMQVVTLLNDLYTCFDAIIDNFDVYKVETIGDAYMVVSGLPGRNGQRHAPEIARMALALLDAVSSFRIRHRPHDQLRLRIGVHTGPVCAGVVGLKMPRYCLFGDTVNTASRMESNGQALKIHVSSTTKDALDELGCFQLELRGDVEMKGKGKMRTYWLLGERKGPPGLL
Method: GH3 cell lysates (from 1 × 10^6 cells) were prepared in lysis buffer (0.5 M TRIS pH 6.8, 10 % [v/v] glycerol, 1 % [w/v] SDS). Protein lysates were sonicated, boiled at 95 °C for 5 min, resolved by 10 % SDS-polyacrylamide gel electrophoresis, transferred to polyvivylidene difluoride membrane and probed for GC-B (1:2000 dilution) or β-actin (1:5000 dilution) expression. Appropriate horseradish-peroxidase-conjugated secondary antibodies were purchased from DAKO.
We next examined whether Npr2 or GC-B down-regulation (as determined by a reduction in Npr2 mRNA expression and or GC-B protein expression) mediated the inhibitory effects of sustained CNP exposure. The effect of CNP exposure on the expression of the endogenous Npr2 gene was examined by using qPCR. […] To establish whether down-regulation occurred at the protein level, total proteins were extracted from GH3 cells incubated for up to 24 h with 100 nM CNP.
Fig. 4 CNP fails to alter expression of Npr2 mRNA or GC-B protein in GH3 somatolactotrope cells. a GH3 cells were stimulated with 0 or 100 nM CNP for 24 h prior to extraction of total RNA, cDNA synthesis, and quantitative PCR for endogenous Npr2 expression. […] Blots were stripped and re-probed for β-actin. Panels are representative of three independent experiments (n = 3)

GC-B [2] = target: T1, GC-B; assay: CNP time-course of total cGMP accumulation (rapid homologous desensitization) in GH3 cells; type: cell-based; settings: 100 nM CNP, 1 mM IBMX, n = 3 in triplicate
Method: To characterize the activity of these receptors further , a series of experiments was performed to examine mechanisms of receptor desensitization. Total cGMP accumulation was measured to determine the changes in activity of the GC-A and GC-B receptors when treated over a short time-course with their native ligands, namely ANP and CNP, respectively. GH3 cells were plated at 3 × 10^5 cells/well in a 24-well plate, treated with 100 nM of either ANP or CNP in the presence of the phosphodiesterase inhibitor IBMX (1 mM) for 0 to 15 min and assayed for total cGMP concentration (Fig. 2a, b). […] In another experiment performed with 100 nM ANP instead of CNP, a rapid increase in cGMP accumulation (7.91 ± 0.9 to 164.31 ± 9.1pmol/ml per milligram protein) occurred between 0 and 5 min.
Fig. 2 Rapid homologous desensitization of CNP-dependent but not ANP-dependent cGMP accumulation in GH3 cells. Cells were treated with PSS containing either (a) 100 nM CNP or (b) 100 nM ANP for 0–15 min in the presence of 1 mM IBMX.

GC-B protein expression (GC-B [1]): failed to alter expression levels
SMILES: CC[C@H](C)[C@@H]1NC(=O)[C@H](CCCNC(=N)N)NC(=O)[C@H](CC(=O)O)NC(=O)[C@H](CC(C)C)NC(=O)[C@H](CCCCN)NC(=O)[C@H](CC(C)C)NC(=O)CNC(=O)[C@H](Cc2ccccc2)NC(=O)[C@@H](NC(=O)CNC(=O)[C@H](CCCCN)NC(=O)[C@H](CO)NC(=O)[C@H](CC(C)C)NC(=O)CN)CSSC[C@@H](C(=O)O)NC(=O)CNC(=O)[C@H](CC(C)C)NC(=O)CNC(=O)[C@H](CO)NC(=O)[C@H](CCSC)NC(=O)[C@H](CO)NC(=O)CNC1=O [CNP, C-type natriuretic peptide]
total cGMP accumulation, 0 min (GC-B [2]; 0 min (start of time-course), mean ± SEM): 6.4 ± 0.7 pmol/ml per milligram protein | rate of cGMP accumulation between 5 to 15 min as % of the initial rate (0 to 5 min) (GC-B [2]; ***P < 0.001): 22.2 ± 3.9% | total cGMP accumulation, 5 min (GC-B [2]; 5 min, mean ± SEM): 82.7 ± 15.5 pmol/ml per milligram protein | total cGMP accumulation, 15 min (GC-B [2]; 15 min, mean ± SEM): 117.4 ± 17.6 pmol/ml per milligram protein

— article PMC3921447, “Homologous and heterologous desensitization of guanylyl cyclase-B signaling in GH3 somatolactotropes” (Cell and Tissue Research, 2013)
